Legend:
[1] = test system: active recombinant MMPs; details: single recombinant MMPs, 500 nM HxBP-Bt
Procedure: A single active recombinant MMP (5 nM by mass, 5 μL total vol) was incubated with HxBP-Bt (30 min at 37° C., 500 nM final HxBP-Bt concentration) under reversible binding conditions. Tested MMPs included MMP1, MMP2, MMP3, MMP7, MMP8, MMP9, MMP10, MMP12, and MMP13. Each containing biotin-labeled MMP (MMP reversibly bound to HxBP-Bt) was then incubated with a cocktail of MMP capture beads (60 minutes, RT, 25 μL total vol).
A cocktail of MMP capture beads diluted in Microparticle Diluent 3 (R&D systems; PN 895857) (17.5 μL bead suspension) was added to the HxBP-Bt-labeled sample (7.5 μL) in a 384-well plate (60 minutes, with rotary agitation, room temperature). Samples were washed 3 times with PBS 0.1% TWEEN®-20 (300 μl each wash) using the Magnetic BioTek plate washer (405 Select TS), incubated with Streptavidin-R-Phycoerythrin (10 μg/mL) diluted in diluted wash buffer concentrate (R&D systems; PN 895003) (15 minutes, with rotary agitation, room temperature), and again washed 3 times by plate washer. Samples were immediately characterized using the FLEXMAP 3D system (Luminex).

[2] = target: T1, MMP9 (Homo sapiens, UniProt P14780); details: literature; cited from earlier work
Target sequence in this assay (P14780 94-707, species assumed): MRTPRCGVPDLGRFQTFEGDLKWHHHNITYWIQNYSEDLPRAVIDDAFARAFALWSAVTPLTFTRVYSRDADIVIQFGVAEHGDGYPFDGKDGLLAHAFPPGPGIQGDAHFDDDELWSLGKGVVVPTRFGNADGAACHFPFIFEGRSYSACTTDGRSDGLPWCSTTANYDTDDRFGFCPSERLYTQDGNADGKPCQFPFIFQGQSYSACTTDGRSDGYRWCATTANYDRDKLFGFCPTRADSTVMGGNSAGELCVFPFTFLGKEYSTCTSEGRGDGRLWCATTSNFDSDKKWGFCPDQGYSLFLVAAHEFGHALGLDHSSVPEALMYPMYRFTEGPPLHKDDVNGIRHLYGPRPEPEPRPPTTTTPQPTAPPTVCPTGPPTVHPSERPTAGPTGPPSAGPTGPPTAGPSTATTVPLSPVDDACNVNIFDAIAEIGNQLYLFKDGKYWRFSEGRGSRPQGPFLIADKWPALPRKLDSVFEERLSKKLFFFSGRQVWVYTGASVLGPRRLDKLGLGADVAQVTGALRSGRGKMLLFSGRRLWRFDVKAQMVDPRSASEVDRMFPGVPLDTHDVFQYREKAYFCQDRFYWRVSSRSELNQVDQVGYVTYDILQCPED

[3] = target: T2, MMP2 (Homo sapiens, UniProt P08253); test: Competitive-MAMBI: loss of HxBP-Bt probe labeling with competitive inhibitor; type: binding; set-up: purchased Peprotech; details: inhibitor 0.17-7.5 μM, HxBP-Bt 0.5 μM
T2 sequence (P08253 110-660): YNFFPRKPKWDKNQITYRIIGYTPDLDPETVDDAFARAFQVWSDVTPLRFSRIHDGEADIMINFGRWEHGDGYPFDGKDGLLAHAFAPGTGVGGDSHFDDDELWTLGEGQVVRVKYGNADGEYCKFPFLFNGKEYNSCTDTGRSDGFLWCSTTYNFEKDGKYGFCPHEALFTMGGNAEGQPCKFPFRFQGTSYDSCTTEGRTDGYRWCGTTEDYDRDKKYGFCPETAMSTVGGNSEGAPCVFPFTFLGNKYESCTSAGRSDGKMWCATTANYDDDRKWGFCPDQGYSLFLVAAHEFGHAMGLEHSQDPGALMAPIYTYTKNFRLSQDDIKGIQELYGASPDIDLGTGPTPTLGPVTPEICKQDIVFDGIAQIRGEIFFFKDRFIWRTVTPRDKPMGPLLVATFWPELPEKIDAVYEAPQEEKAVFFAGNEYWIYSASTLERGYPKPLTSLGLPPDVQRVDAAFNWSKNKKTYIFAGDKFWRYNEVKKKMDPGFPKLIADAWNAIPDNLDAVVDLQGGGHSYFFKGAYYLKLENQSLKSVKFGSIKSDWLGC

[4] = target: T1, MMP9; test: as above; type: binding; set-up: The recombinant catalytic domains of human MMPs 7 and 9 were purchased from Enzo Life Sciences, and of MMP 12 from Anaspec; purchased Enzo Life Sciences; details: MMP9 (gelatinase); inhibitor 0.17-7.5 μM, HxBP-Bt 0.5 μM
Procedure: (§1) The MAMBI platform was utilized for characterization of inhibitors, in which the HxBP-Bt probe binding to active metalloproteinase was assayed in the presence of small molecule metalloproteases inhibitors. The relative inhibitor potencies were quantified by the loss of labeling by activity-based probe of a target protease with the addition of a competitive inhibitor. Selectivity was additionally estimated by monitoring relative potencies across an enzyme superfamily.
(§2) The relative inhibition by 10 commercially available inhibitors was characterized in a mixture of six recombinant MMPs, as well as in menstrual serum effluent.
(§3) Protease labeling was reported as a fraction of MAMBI signal without competitive inhibition.
Target sequence in this assay (P14780 107-449 limits assumed): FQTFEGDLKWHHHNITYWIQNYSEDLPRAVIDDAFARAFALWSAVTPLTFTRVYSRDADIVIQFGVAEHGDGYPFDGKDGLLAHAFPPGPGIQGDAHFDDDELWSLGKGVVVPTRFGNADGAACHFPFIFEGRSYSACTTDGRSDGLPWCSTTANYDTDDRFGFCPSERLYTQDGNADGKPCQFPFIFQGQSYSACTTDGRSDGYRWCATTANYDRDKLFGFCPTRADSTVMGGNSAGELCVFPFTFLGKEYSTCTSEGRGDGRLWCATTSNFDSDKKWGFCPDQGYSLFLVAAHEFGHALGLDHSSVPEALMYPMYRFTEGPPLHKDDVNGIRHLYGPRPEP

[5] = target: T3, MMP3 (Homo sapiens, UniProt P08254); test: as above; type: binding; set-up: purchased Peprotech; details: recombinant and menstrual effluent, inhibitor 0.17-7.5 μM, HxBP-Bt 0.5 μM
Procedure: as §1, §2, §3
Target sequence in this assay (P08254 100-477): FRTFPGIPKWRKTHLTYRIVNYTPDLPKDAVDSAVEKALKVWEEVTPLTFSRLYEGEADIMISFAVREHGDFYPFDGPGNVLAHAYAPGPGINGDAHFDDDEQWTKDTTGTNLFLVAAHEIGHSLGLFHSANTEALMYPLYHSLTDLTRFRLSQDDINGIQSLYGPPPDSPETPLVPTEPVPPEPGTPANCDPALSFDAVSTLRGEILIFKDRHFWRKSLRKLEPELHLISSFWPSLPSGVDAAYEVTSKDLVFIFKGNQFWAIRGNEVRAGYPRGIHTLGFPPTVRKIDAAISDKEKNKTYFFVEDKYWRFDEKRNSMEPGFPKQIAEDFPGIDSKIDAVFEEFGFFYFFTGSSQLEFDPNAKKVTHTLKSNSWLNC

[6] = target: T3, MMP3; details: literature; cited from earlier work
Target sequence in this assay (P08254 100-477, species assumed): as the sequence (P08254 100-477) above

[7] = target: MMP12 (Homo sapiens, UniProt P39900); details: literature; cited from earlier work
MMP12, sequence (P39900 106-470, species assumed): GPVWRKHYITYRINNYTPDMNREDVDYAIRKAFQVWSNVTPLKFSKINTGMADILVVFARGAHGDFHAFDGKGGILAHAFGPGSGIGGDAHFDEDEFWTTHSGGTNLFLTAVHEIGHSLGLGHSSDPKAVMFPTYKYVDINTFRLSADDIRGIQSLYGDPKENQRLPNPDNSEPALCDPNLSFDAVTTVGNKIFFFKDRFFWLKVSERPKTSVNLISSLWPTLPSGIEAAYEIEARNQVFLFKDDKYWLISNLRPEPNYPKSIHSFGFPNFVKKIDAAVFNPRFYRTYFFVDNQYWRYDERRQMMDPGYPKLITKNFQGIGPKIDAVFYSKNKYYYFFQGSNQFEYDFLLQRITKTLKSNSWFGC

[8] = target: T4, MMP7 (Homo sapiens, UniProt P09237); details: literature; cited from earlier work
T4 sequence (P09237 95-267): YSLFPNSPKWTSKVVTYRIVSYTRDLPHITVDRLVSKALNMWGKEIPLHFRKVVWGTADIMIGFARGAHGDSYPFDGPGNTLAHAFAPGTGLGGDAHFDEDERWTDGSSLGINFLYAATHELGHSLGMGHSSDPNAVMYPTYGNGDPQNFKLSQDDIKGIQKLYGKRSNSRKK

[9] = target: T2, MMP2; details: literature; cited from earlier work
[10] = test system: panel of MMPs (MMP1, MMP2, MMP3, MMP7, MMP9, MMP12); test: Competitive-MAMBI: loss of HxBP-Bt probe labeling with competitive inhibitor; type: binding, human; details: recombinant MMPs and menstrual effluent; inhibitor 0.17-7.5 μM, HxBP-Bt 0.5 μM
[11] = target: T5, MMP1 (Homo sapiens, UniProt P03956); test: as above; type: binding; set-up: purchased Peprotech; details: recombinant and effluent derived samples, inhibitor 0.17-7.5 μM, HxBP-Bt 0.5 μM
T5 sequence (P03956 100-469): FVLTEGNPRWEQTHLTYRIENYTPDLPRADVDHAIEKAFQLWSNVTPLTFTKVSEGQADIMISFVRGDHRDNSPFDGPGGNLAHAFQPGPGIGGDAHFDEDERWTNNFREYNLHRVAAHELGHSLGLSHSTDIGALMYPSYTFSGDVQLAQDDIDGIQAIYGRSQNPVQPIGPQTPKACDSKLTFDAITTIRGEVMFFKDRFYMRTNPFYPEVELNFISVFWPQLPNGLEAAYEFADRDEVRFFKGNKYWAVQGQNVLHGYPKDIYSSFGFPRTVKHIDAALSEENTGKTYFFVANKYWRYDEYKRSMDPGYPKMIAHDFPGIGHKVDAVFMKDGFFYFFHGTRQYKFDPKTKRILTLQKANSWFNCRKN

[12] = target: T4, MMP7; test: as above; type: binding; set-up: The recombinant catalytic domains of human MMPs 7 and 9 were purchased from Enzo Life Sciences, and of MMP 12 from Anaspec; purchased Enzo Life Sciences; details: recombinant and effluent derived samples, inhibitor 0.17-7.5 μM, HxBP-Bt 0.5 μM
Procedure: as §1, §2, §3

SMILES: O=C(O)CN(CCN(CC(=O)O)CC(=O)O)CC(=O)O [EDTA, Ethylenediaminetetraacetic acid]
- effect on HxBP-Bt binding (MAMBI signal) [1]: completely eliminated HxBP-Bt binding

SMILES: O=P(O)(O)C(NS(=O)(=O)c1ccc(-c2ccc(Cl)cc2)cc1)P(=O)(O)O [MMP inhibitor 2, MMP Inhibitor 2 IV]
- IC50 [2]: > 1000 nM
- inhibitory activity (loss of probe labeling) [3]: did not prevent the binding of HxBP-Bt
- inhibitory activity (loss of probe labeling) [4]: did not prevent the binding of HxBP-Bt

SMILES: N#Cc1ccc(-c2ccc(OCCC(=O)NO)cc2)cc1 [MMP Inhib 3 VII, MMP3 Inhibitor VII]
- inhibitory activity (loss of probe labeling) [5]: expected inhibition of MMP3

SMILES: COC[C@H](NC(=O)[C@H](NC(=O)[C@@H](CCCc1ccc(-c2ccccc2)c(C)c1)CC(=O)O)C(C)(C)C)c1ccccc1 [UK 370106]
- IC50 [2]: 30400 nM
- IC50 [6]: 23 nM
- IC50 [7]: 42 nM
- IC50 [8]: 5800 nM
- inhibitory activity (loss of probe labeling) [5]: expected inhibition of MMP3

SMILES: O=C(O)C[C@@H](NC(=O)c1cc(-c2ccc(-c3ccncc3)cc2)cs1)c1ccccc1 [PF 356231]
- IC50 [9]: > 100 nM
- IC50 [8]: 96000 nM

SMILES: O=S(=O)(CC1CS1)c1ccc(Oc2ccccc2)cc1 (stereo not shown) [SB 3CT, SB-3CT]
- inhibitory activity (loss of probe labeling) [4]: did not prevent the binding of HxBP-Bt

SMILES: CNC(=O)[C@H](Cc1ccccc1)NC(=O)[C@H](CC(C)C)[C@H](CSc1cccs1)C(=O)NO [Batimastat]
- IC50 [2]: 1 nM
- IC50 [8]: 6 nM
- inhibitory activity (loss of probe labeling) [10]: inhibitory activity toward every protease tested
- inhibitory activity (loss of probe labeling) [5]: stronger inhibitory activity against MMP3 compared with Marimastat

SMILES: CNC(=O)[C@@H](NC(=O)[C@H](CC(C)C)[C@H](O)C(=O)NO)C(C)(C)C [Marimastat]
- inhibitory activity (loss of probe labeling) [10]: inhibitory activity toward every protease tested

SMILES: CN1C(=O)N(CC(C(=O)NO)[C@H](CC2CCCC2)C(=O)N2CCCCC2)C(=O)C1(C)C (stereo partly shown) [Ro32-3555, Ro 32-3555 (Trocade)]
- Ki [2]: 95 nM
- inhibitory activity (loss of probe labeling) [11]: significant potency
- Ki [9]: 154 nM
- Ki [8]: 42 nM
- inhibitory activity (loss of probe labeling) [12]: significant potency

SMILES: CC(C)ON([C@@H](C(=O)NO)C(C)C)S(=O)(=O)c1ccc(-c2ccccc2)cc1 [ARP 101]
- inhibitory activity (loss of probe labeling) [3]: increased potency
- inhibitory activity (loss of probe labeling) [5]: increased potency

From patent publication US11408885B2, “Compositions and multiplex assays for characterizing active proteases and their inhibitors” (Massachusetts Institute of Technology, priority 2017, dated 2022)
